Measured values as given in patent US8173133B2, “Acyl pseudodipeptides which carry a functionalized auxiliary arm” (OM Pharma, priority 1999, dated 2012).

tested on: Limulus Amoebocyte Lysate

Compound	LAL EU/mg of product	LAL ng of LPS equivalent per mg of product
CCCCCCCCCCCC(=O)O[C@H](CCCCCCCCCCC)CC(=O)N[C@H](CC(=O)N[C@@H](CCCCN)C(=O)O)C(=O)NCCC[C@H](COC(=O)CCCCCN)NC(=O)C[C@H](O)CCCCCCCCCCC [OM-197-Lys-AC]	<2.5 EU/mg of product	<0.2 ng of LPS equivalent per mg of product
CCCCCCCCCCCC(=O)O[C@H](CCCCCCCCCCC)CC(=O)N[C@H](CC(=O)O)C(=O)NCCC[C@H](COC(=O)CCCCCO)NC(=O)C[C@H](O)CCCCCCCCCCC [OM-197-MC-FV7, N—[(R)-3-dodecanoyloxytetradecanoylamino]-D-aspartic acid, α-N-{(4R)-5-hydroxy-4-[(R)-3-hydroxytetradecanoylamino]pentyl}amide 5-O-(6-hydroxyhexanoate)]	<0.05 EU/mg of product	<0.004 ng of LPS equivalent per mg of product
CCCCCCCCCCC[C@@H](O)CC(=O)N[C@H](CCCNC(=O)[C@@H](CC(=O)O)NC(C)=O)COC(=O)CCCCCN [OM-197-N′C2-MC-AC, N-acetyl-D-aspartic acid, α-N-{(4R)-5-(6-aminohexanoyloxy)-4-[(R)-3-hydroxytetradecanoylamino]-pentyl}amide]	<0.5 EU/mg of product	<0.04 ng of LPS equivalent per mg of product
CCCCCCCCCCCC(=O)O[C@H](CCCCCCCCCCC)CC(=O)N[C@H](CC(=O)N[C@@H](CC(=O)O)C(=O)O)C(=O)NCCC[C@H](CO)NC(=O)C[C@H](O)CCCCCCCCCCC [OM-197-Asp, N—[(R)-3-dodecanoyloxytetradecanoyl]-D-aspartic acid, α-N-{(4R)-5-hydroxy-4-[(R)-3-hydroxytetradecanoylamino]-pentyl}Amide β-N-[(1S)-1,2-Dicarboxyethyl]Amide]	<2.5 EU/mg of product	<0.2 ng of LPS equivalent per mg of product
CCCCCCCCCCCC(=O)O[C@H](CCCCCCCCCCC)CC(=O)NC(CCOP(=O)(O)O)C(=O)NCCCC(COC(=O)CCCCCO)NC(=O)C[C@H](O)CCCCCCCCCCC (stereo partly drawn) [OM-197-FV8, 3-[(R)-3-dodecanoyloxytetradecanoylamino]-4-oxo-5-aza-9-[(R)-3-hydroxytetradecanoylamino]-decan-1,10-diol 1-dihydrogenphosphate 10-(6-hydroxyhexanoate)]	1820 EU/mg of product	145.6 ng of LPS equivalent per mg of product
CCCCCCCCCCCC(=O)O[C@H](CCCCCCCCCCC)CC(=O)N[C@H](CC(=O)O)C(=O)NCCC[C@H](COC(=O)CCC(=O)O)NC(=O)C[C@H](O)CCCCCCCCCCC [OM-197-MC-Succ]	5.3 EU/mg of product	0.42 ng of LPS equivalent per mg of product
CCCCCCCCCCC[C@@H](O)CC(=O)N[C@H](CCCNC(=O)[C@@H](CC(=O)O)NC(=O)C(CCCCCC)OC(=O)CCCCCCCCC)COC(=O)CCCCCN (stereo partly drawn) [OM-197-N′(C10-20C8)-MC-AC, N-(2-decanoyloxyoctanoyl)-D-aspartic acid, α-N-{(4R)-5-(6-aminohexanoyloxy)-4-[(R)-3-hydroxytetradecanoylamino]-pentyl}amide]	<0.5 EU/mg of product	<0.04 ng of LPS equivalent per mg of product
CCCCCCCCCCCC(=O)O[C@H](CCCCCCCCCCC)CC(=O)NC(CCOP(=O)(O)O)C(=O)NCCC[C@H](COC(=O)CCCCCN)NC(=O)C[C@H](O)CCCCCCCCCCC (mixture of isomers) [OM-197-MP-AC (R/S, R), (3RS,9R)-3-[(R)-3-dodecanoyloxytetradecanoylamino]-4oxo-5-aza-9-[(R)-3-hydroxytetradecanoylamino]-decan-10-ol 1-dihydrogen-phosphate(6-aminohexanoate)]	0.14 EU/mg of product	0.011 ng of LPS equivalent per mg of product
CCCCCCCCCCCC(=O)O[C@H](CCCCCCCCCCC)CC(=O)N[C@H](CC(=O)N[C@@H](CCCCN)C(=O)O)C(=O)NCCC[C@H](CO)NC(=O)C[C@H](O)CCCCCCCCCCC [OM-197-Lys]	3 EU/mg of product	0.24 ng of LPS equivalent per mg of product
CCCCCCCCCCCC(=O)O[C@H](CCCCCCCCCCC)CC(=O)N[C@@H](CCOP(=O)(O)O)C(=O)NCCC[C@H](COC(=O)CCCCCO)NC(=O)C[C@H](O)CCCCCCCCCCC [OM-197-MP-AC (S, R), (3S,9R)-3-[(R)-3-dodecanoyloxytetradecanoylamino]-4-oxo-5-aza-9-[(R)-3-hydroxytetradecanoylamino]-1,10-diol 1-dihydrogenphosphate 10-(6-hydroxyhexanoate)]	<0.125 EU/mg of product	<0.01 ng of LPS equivalent per mg of product
CCCCCCCCCCCC(=O)O[C@H](CCCCCCCCCCC)CC(=O)N[C@H](CC(=O)NCCCN)C(=O)NCCC[C@H](CO)NC(=O)C[C@H](O)CCCCCCCCCCC [OM-197-AP, N—[(R)-3-dodecanoyloxytetradecanoyl]-D-aspartic acid, α-N-{(4R)-5-hydroxy-4-[(R)-3-hydroxy-tetradecanoylamino]pentyl}-amide β-N-(3-aminopropyl)amide]	<0.5 EU/mg of product	<0.04 ng of LPS equivalent per mg of product
CCCCCCCCCCCC(=O)O[C@H](CCCCCCCCCCC)CC(=O)N[C@H](CC(=O)O)C(=O)NCCC[C@H](COC(=O)CCCCCNC(=O)CCC(=O)O)NC(=O)C[C@H](O)CCCCCCCCCCC [OM-197-MC-AC-Succ, N—[(R)-3-dodecanoyloxytetradecanoyl]-D-aspartic acid, α-N-{(4R)-5-(6-succinylamidohexanoxyloxy)-4[(R)-3-hydroxy-tetradecanoylamino]pentyl}amide]	<0.05 EU/mg of product	<0.004 ng of LPS equivalent per mg of product
CCCCCCCCCCCC(=O)O[C@H](CCCCCCCCCCC)CC(=O)N[C@H](CC(=O)N[C@@H](CC(=O)O)C(=O)O)C(=O)NCCC[C@H](COC(=O)CCCCCN)NC(=O)C[C@H](O)CCCCCCCCCCC [OM-197-Asp-AC, N—[(R)-3-dodecanoyloxytetradecanoyl]-D-aspartic acid, α-N-{(4R)-5-(6-aminohexanoyloxy)-4-[(R)-3-hydroxytetradecanoyl-amino]-pentyl}amide β-N-[(1S)-1,2-dicarboxyethyl]Amide]	2307 EU/mg of product	184.6 ng of LPS equivalent per mg of product
CCCCCCCCCCCC(=O)O[C@H](CCCCCCCCCCC)CC(=O)N[C@H](CC(=O)O)C(=O)NCCC[C@H](COP(=O)(O)O)NC(=O)C[C@H](O)CCCCCCCCCCC [OM-197-MC-MP, N—[(R)-3-dodecanoyloxytetradecanoyl]-D-aspartic acid, α-N-{(4R)-5-dihydroxyphosphoryloxy-4-[(R)-3-hydroxytetradecanoyl-amino]pentyl}amide]	210.5 EU/mg of product	16.8 ng of LPS equivalent per mg of product
